Counter-ions that a name gives are not always drawn.
Legend:
5-HT1F receptor = molecular target: T1, 5-HT1F receptor (Homo sapiens, UniProt P30939); assay: biochemical; type: CHO-K1 membranes; parameters: radioligand competition binding on cell membranes, filtration and TopCount scintillation counting; details: radioligand displacement; for IC50: read-out: 5‐HT1F / pIC50 (converted); for Ki: read-out: 5‐HT1F / pKi (converted)
T1 construct: gene HTR1F; full-length human recombinant receptor in CHO-K1 cells (Ogeda)
T1 sequence (P30939 1-366): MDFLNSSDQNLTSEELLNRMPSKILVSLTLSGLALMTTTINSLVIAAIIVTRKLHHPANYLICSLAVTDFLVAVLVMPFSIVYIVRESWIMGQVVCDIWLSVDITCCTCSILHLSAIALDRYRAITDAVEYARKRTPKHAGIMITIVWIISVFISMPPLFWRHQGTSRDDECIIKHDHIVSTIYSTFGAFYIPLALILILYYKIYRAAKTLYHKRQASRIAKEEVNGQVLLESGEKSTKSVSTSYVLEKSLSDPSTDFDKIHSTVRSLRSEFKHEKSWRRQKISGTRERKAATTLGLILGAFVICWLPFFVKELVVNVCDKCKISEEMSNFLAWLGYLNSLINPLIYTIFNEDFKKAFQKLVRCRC
Experimental: Competition binding was performed in duplicate in the wells of a 96‐well plate containing binding buffer (optimized for each receptor), cell membrane extracts (approximately 20,000 cells distributed in the 96‐well plate), radiotracer, and test agonist. Non‐specific binding was determined by co‐incubation with 200‐fold excess of competitor. Cells were incubated and exposed to varying concentrations (1 pM to 10 μM) of a range of displacer agonists (see below). The samples were incubated in a final volume of 0.1 ml and then filtered over Unifilter plates (Perkin Elmer, Massachusetts, USA) pretreated for 2 hr to limit tracer non‐specific binding. Filters were washed five times with 0.5 ml of ice‐cold washing buffer (tris 50 mM pH 7.4) and 50 μl of Microscint 20 (Perkin Elmer) were added to each filter. The plates were incubated 15 min at room temperature on an orbital shaker and then counted with a TopCount™ (Perkin Elmer) for 1 min per well. […] Additionally, the reference values obtained were compared to historical values obtained from the same receptor and used to validate the experimental session. […] For the new assays developed in this study (i.e., 5‐ht1E receptor), the two independent pIC50 determined must be concordant with a 1 log unit interval for the assays to be validated. […]

5-ht1E receptor [1] = molecular target: T2, 5-ht1E receptor (Homo sapiens, UniProt P28566); assay: biochemical; type: CHO-K1 membranes; parameters: radioligand competition binding on cell membranes, filtration and TopCount scintillation counting; details: radioligand displacement; read-out: 5‐ht1E / pIC50 (converted)
T2 construct: gene HTR1E; full-length human recombinant receptor in CHO-K1 cells (Ogeda); crude membranes
Experimental: (§1) Competition binding was performed in duplicate in the wells of a 96‐well plate containing binding buffer (optimized for each receptor), cell membrane extracts (approximately 20,000 cells distributed in the 96‐well plate), radiotracer, and test agonist. Non‐specific binding was determined by co‐incubation with 200‐fold excess of competitor. Cells were incubated and exposed to varying concentrations (1 pM to 10 μM) of a range of displacer agonists (see below). The samples were incubated in a final volume of 0.1 ml and then filtered over Unifilter plates (Perkin Elmer, Massachusetts, USA) pretreated for 2 hr to limit tracer non‐specific binding. Filters were washed five times with 0.5 ml of ice‐cold washing buffer (tris 50 mM pH 7.4) and 50 μl of Microscint 20 (Perkin Elmer) were added to each filter. The plates were incubated 15 min at room temperature on an orbital shaker and then counted with a TopCount™ (Perkin Elmer) for 1 min per well. […] Additionally, the reference values obtained were compared to historical values obtained from the same receptor and used to validate the experimental session. […] For the new assays developed in this study (i.e., 5‐ht1E receptor), the two independent pIC50 determined must be concordant with a 1 log unit interval for the assays to be validated.

5-HT1D receptor [2] = molecular target: T3, 5-HT1D receptor (Homo sapiens, UniProt P28221); assay: radioligand competition, CHO-K1 membranes; type: binding; details: read-out: 5-HT1D / pKi (converted)
T3 construct: gene HTR1D; full-length human recombinant receptor in CHO-K1 cells (Ogeda); crude membranes
Source text: radioligand competition, CHO-K1 membranes on 5-HT1D receptor

5-ht1E receptor [3] = molecular target: T2, 5-ht1E receptor; assay: radioligand competition, CHO-K1 membranes; type: binding; details: read-out: 5-ht1E / pKi (converted)
Source text: radioligand competition, CHO-K1 membranes on 5-ht1E receptor

5-HT2B receptor = molecular target: T4, 5-HT2B receptor (Homo sapiens, UniProt P41595); assay: biochemical; type: CHO-K1 membranes; parameters: radioligand competition binding on cell membranes, filtration and TopCount scintillation counting; details: radioligand displacement; read-out: 5‐HT2B / pIC50 (converted)
T4 construct: gene HTR2B; full-length human recombinant receptor in CHO-K1 cells (Ogeda); crude membranes
Experimental: as §1

5-HT1D receptor [4] = molecular target: T3, 5-HT1D receptor; assay: biochemical; type: CHO-K1 membranes; parameters: radioligand competition binding on cell membranes, filtration and TopCount scintillation counting; details: radioligand displacement; read-out: 5‐HT1D / pIC50 (converted)
Experimental: as §1

5-HT1B receptor [5] = molecular target: T5, 5-HT1B receptor (Homo sapiens, UniProt P28222); assay: radioligand competition, CHO-K1 membranes; type: binding; details: read-out: 5-HT1B / pKi (converted)
T5 construct: gene HTR1B; full-length human recombinant receptor in CHO-K1 cells (Ogeda); crude membranes
Source text: radioligand competition, CHO-K1 membranes on 5-HT1B receptor

5-HT1B receptor [6] = molecular target: T5, 5-HT1B receptor; assay: biochemical; type: CHO-K1 membranes; parameters: radioligand competition binding on cell membranes, filtration and TopCount scintillation counting; details: radioligand displacement; read-out: 5‐HT1B / pIC50 (converted)
Experimental: as §1

T3 sequence (P28221 whole entry): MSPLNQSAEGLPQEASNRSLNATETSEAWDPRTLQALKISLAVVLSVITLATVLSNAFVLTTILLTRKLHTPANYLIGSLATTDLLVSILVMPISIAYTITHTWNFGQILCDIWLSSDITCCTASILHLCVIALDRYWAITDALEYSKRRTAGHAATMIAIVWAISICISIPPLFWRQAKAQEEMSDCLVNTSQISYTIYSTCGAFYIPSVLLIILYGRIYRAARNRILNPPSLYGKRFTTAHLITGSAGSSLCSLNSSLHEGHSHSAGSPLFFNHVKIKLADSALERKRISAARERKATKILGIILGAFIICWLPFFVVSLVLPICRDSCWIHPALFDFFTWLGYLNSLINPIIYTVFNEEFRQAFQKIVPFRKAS
T4 sequence (P41595 whole entry): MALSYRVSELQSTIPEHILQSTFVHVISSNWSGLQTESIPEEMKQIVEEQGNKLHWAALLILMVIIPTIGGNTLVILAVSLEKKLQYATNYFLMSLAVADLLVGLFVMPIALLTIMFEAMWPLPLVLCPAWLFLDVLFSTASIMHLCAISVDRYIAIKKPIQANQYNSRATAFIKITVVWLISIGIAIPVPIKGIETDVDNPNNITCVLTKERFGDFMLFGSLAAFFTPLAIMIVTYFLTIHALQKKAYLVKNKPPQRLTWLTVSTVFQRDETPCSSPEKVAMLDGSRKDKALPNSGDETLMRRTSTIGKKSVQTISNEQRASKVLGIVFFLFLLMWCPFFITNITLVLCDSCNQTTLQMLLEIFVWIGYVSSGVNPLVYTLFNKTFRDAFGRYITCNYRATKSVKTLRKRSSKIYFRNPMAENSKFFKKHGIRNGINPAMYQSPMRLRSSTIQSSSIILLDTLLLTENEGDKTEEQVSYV
T5 sequence (P28222 whole entry): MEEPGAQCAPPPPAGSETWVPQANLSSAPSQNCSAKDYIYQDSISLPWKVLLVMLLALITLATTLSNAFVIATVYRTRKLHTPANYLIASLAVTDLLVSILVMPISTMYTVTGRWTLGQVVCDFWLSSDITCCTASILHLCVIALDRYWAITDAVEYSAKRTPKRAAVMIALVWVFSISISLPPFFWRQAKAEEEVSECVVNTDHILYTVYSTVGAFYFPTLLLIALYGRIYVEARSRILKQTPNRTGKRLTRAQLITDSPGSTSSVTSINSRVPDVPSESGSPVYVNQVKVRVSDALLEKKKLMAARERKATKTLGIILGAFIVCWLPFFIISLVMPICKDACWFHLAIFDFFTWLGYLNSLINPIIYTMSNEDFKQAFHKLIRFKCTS
T2 sequence (P28566 whole entry): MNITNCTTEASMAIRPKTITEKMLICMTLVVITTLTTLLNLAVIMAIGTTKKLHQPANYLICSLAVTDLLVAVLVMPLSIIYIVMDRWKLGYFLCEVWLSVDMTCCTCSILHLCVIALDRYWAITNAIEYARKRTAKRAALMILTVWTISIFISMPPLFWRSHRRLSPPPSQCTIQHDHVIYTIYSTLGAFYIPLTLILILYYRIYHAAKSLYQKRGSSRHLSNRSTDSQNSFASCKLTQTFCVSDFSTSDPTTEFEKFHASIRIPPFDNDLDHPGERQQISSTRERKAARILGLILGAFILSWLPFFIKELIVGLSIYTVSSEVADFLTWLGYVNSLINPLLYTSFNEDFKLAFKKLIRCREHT

`CNC1CCc2[nH]c3ccc(C(N)=O)cc3c2C1` (racemic) [Frovatriptan racemate] was tested, and the IC50 (5-HT1F receptor) was 316 nM, the Ki (5-HT1F receptor) was 120 nM and the IC50 (5-ht1E receptor [1]) was > 10 µM.

`CNS(=O)(=O)CCc1ccc2[nH]cc(C3CCN(C)CC3)c2c1` [Naratriptan hydrochloride] gave an IC50 (5-HT1F receptor) of 4.68 nM, a Ki (5-HT1D receptor [2]) of 0.501 nM and a Ki (5-ht1E receptor [3]) of 7.41 nM. The IC50 (5-HT2B receptor) was > 10000 nM, the IC50 (5-HT1D receptor [4]) was 2.4 nM and the Ki (5-HT1B receptor [5]) was 0.603 nM.

`CN1CCC[C@@H]1Cc1c[nH]c2ccc(CCS(=O)(=O)c3ccccc3)cc12` [Eletriptan hydrobromide] showed an IC50 (5-HT1F receptor) of 44.7 nM, a Ki (5-HT1D receptor [2]) of 0.102 nM and a Ki (5-ht1E receptor [3]) of 61.7 nM. The IC50 (5-ht1E receptor [1]) was 0.123 µM, the IC50 (5-HT2B receptor) was 724 nM and the IC50 (5-HT1D receptor [4]) was 0.49 nM. For the same compound, the IC50 (5-HT1B receptor [6]) was 1.58 nM and the Ki (5-HT1B receptor [5]) was 0.525 nM.

Compound `CNS(=O)(=O)Cc1ccc2[nH]cc(CCCN3CCN(c4ncncc4OC)CC3)c2c1` [Avitriptan fumarate] has an IC50 (5-HT1F receptor) of 204 nM, a Ki (5-HT1D receptor [2]) of 0.776 nM and a Ki (5-ht1E receptor [3]) of 3550 nM. It also gave an IC50 (5-ht1E receptor [1]) of 7.08 µM, an IC50 (5-HT2B receptor) of 1860 nM and an IC50 (5-HT1D receptor [4]) of 3.8 nM. The IC50 (5-HT1B receptor [6]) was 4.79 nM and the Ki (5-HT1B receptor [5]) was 1.58 nM.

Work on `N#Cc1ccc(N2CCN(C(=O)COc3ccc4[nH]cc(CCN)c4c3)CC2)cc1` [Donitriptan hydrochloride] yielded a Ki (5-HT1D receptor [2]) of 0.138 nM, a Ki (5-ht1E receptor [3]) of 1700 nM and an IC50 (5-ht1E receptor [1]) of 3.39 µM. For the same compound, the IC50 (5-HT2B receptor) was 1320 nM, the IC50 (5-HT1D receptor [4]) was 0.661 nM and the IC50 (5-HT1B receptor [6]) was 0.513 nM. The Ki (5-HT1B receptor [5]) was 0.17 nM.

Compound `CN(C)[C@@H]1CCc2[nH]c3ccc(NC(=O)c4ccc(F)cc4)cc3c2C1` [LY344864 hydrochloride] has an IC50 (5-HT1F receptor) of 4.17 nM, a Ki (5-HT1F receptor) of 1.58 nM and an IC50 (5-HT2B receptor) of 4900 nM.

— PMC6965684, “Characterization of binding, functional activity, and contractile responses of the selective 5‐HT1F receptor agonist lasmiditan” (British Journal of Pharmacology, 2019)
